What all share (format): biochemical
One experiment addresses PKC theta kinase (Homo sapiens, UniProt Q04759). As to the kind of experiment: PKC theta kinase inhibition, coupled-enzyme (NADH absorbance) assay, Ki. To be noted: 240 μM ATP, 18 nM PKC theta kinase, 30° C. An outline of the steps:
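Coupled-enzyme kinase assay following NADH absorbance at 340 nm, in 100 mM HEPES pH 7.5, 10 mM MgCl2, 25 mM NaCl, 0.1 mM EDTA, 0.01% Brij. Compound in DMSO preincubated with enzyme 10 min at 30 °C. Ki from initial rates by non-linear regression.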

A further experiment has as its target PKC delta kinase (Homo sapiens, UniProt Q05655). Description: PKC delta kinase inhibition, coupled-enzyme (NADH absorbance) assay, Ki. To be noted: 150 μM ATP, 46 nM PKC delta kinase, 30° C.; read-out: Ki PKC delta. The method in brief: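 PKC delta in 100 mM HEPES pH 7.5, 10 mM MgCl2, 25 mM NaCl, 0.1 mM EDTA, 0.01% Brij, equilibrated 10 min at 30° C with compound from DMSO stock. Started with ATP at 150 μM final; NADH-coupled absorbance at 340 nm followed 15 min at 30° C. Ki from initial rates by non-linear regression.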

For another experiment, the target named is PKC alpha kinase (Homo sapiens, UniProt P17252). As to the kind of experiment: PKC alpha kinase inhibition, coupled-enzyme (NADH absorbance) assay, Ki. To be noted: 130 μM ATP, 4.5 nM PKC alpha kinase, 30° C. An outline of the steps: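 Enzyme in 100 mM HEPES pH 7.5, 10 mM MgCl2, 100 μM CaCl2, 0.01% Brij, preincubated with compound 10 min at 30 °C. Reaction started with 130 μM ATP (final); NADH consumption followed at 340 nm for 15 min at 30 °C. Ki fitted by non-linear regression of initial rates.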

Sequence of PKC delta kinase (Q05655 whole entry): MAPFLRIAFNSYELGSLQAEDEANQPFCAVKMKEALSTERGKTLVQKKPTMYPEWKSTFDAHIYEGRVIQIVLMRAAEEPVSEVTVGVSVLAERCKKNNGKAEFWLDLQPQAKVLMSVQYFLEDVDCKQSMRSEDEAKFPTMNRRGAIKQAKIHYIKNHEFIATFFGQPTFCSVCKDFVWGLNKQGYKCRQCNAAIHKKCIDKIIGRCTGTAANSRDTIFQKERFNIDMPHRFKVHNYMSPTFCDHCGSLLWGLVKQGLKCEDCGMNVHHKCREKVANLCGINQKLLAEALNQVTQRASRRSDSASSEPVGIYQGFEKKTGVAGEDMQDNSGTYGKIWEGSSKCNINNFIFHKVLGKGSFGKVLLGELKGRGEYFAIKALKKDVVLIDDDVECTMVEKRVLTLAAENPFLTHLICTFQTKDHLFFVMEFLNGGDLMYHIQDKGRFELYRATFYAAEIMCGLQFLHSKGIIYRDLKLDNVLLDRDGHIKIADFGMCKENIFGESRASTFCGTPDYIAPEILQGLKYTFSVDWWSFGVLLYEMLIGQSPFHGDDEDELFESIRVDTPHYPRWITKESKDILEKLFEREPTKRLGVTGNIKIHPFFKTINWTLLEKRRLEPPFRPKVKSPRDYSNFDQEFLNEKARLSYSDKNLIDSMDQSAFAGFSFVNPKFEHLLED
Sequence of PKC theta kinase (Q04759 whole entry): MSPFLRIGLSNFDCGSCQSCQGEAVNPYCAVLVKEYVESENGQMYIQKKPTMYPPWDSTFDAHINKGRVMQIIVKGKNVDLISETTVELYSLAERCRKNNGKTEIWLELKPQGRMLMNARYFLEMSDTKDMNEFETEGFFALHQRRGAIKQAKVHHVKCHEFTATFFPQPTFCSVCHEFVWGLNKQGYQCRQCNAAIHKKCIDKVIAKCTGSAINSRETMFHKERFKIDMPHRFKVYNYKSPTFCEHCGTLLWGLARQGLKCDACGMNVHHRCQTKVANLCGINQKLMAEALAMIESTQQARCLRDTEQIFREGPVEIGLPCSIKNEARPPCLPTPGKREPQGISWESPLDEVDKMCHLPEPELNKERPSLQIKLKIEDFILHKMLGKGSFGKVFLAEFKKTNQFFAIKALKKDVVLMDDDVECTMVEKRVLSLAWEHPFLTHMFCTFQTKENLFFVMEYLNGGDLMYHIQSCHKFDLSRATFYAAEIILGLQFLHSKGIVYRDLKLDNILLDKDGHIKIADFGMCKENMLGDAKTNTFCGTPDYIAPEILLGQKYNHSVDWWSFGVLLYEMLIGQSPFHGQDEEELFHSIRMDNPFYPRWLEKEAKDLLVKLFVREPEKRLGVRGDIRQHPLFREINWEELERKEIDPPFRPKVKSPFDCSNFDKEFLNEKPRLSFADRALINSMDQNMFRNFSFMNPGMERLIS

With `CC(C)C[C@H]1CN(c2nc(-c3n[nH]c4ncccc34)ccc2F)CCN1` [Compound 131], the Ki on PKC theta kinase is less than 50 nM; at PKC delta kinase it was less than 2800 nM; on PKC alpha kinase it was less than 2800 nM.
In the case of `CC(C)CC1(C)CN(c2nc(-c3n[nH]c4ncccc34)ccc2F)CCN1` (stereo not drawn) [Compound 132], the Ki was less than 50 nM at PKC theta kinase, less than 500 nM on PKC delta kinase and less than 2800 nM on PKC alpha kinase.
Take `Cc1ccc(C2CN(c3ccc(C(F)(F)F)c(-c4n[nH]c5ncccc45)n3)CCN2)cc1` (stereo not drawn) [Compound 133]: the Ki at PKC theta kinase is less than 500 nM; at PKC delta kinase it was greater than 1250 nM; on PKC alpha kinase, greater than 1250 nM.
For the compound `Cc1cccc(C2CN(c3ccc(C(F)(F)F)c(-c4n[nH]c5ncccc45)n3)CCN2)c1` (stereo not drawn) [Compound 134], the Ki at PKC theta kinase is less than 50 nM; on PKC delta kinase, less than 2800 nM; at PKC alpha kinase, less than 2800 nM.
As to `CC(C)(O)[C@H]1CN(c2cccc(-c3n[nH]c4ncccc34)n2)CCN1` [Compound 136], the Ki at PKC theta kinase is less than 50 nM; on PKC delta kinase, less than 500 nM; on PKC alpha kinase, greater than 1250 nM.
In the same order, the values of `CC(C)C[C@@H]1CN(c2ccc(C(F)(F)F)c(-c3n[nH]c4ncccc34)n2)CC[C@@H]1N` [Compound 138] are less than 50 nM, less than 500 nM and less than 2800 nM.
In the same order, the values of `CC(C)(C)C[C@H]1CN(c2cccc(-c3n[nH]c4ncccc34)n2)CCN1` [Compound 139] are less than 50 nM, less than 50 nM and less than 2800 nM.
In the same order, the values of `CC(C)(C)C[C@H]1CN(c2ccc(C(F)(F)F)c(-c3n[nH]c4ncccc34)n2)CCN1` [Compound 140] are less than 50 nM, greater than 1250 nM and greater than 1250 nM.
As to `CC(C)(C)C[C@H]1CN(c2ccc(Cl)c(-c3n[nH]c4ncccc34)n2)CCN1` [Compound 141], the Ki is less than 50 nM at PKC theta kinase, less than 500 nM on PKC delta kinase and less than 2800 nM on PKC alpha kinase.
For the compound `CC(C)(C)C[C@H]1CN(c2ccc(F)c(-c3n[nH]c4ncccc34)n2)CCN1` [Compound 142], the values for the Ki on PKC theta kinase, on PKC delta kinase and at PKC alpha kinase were less than 50 nM, less than 500 nM and greater than 1250 nM, respectively.
With `CC(C)C(F)(F)C1CN(c2cccc(-c3n[nH]c4ncccc34)n2)CCN1` (stereo not drawn) [Compound 143], the Ki is less than 500 nM at PKC theta kinase, less than 2800 nM at PKC delta kinase and greater than 1250 nM at PKC alpha kinase.
`CC(C)C[C@H]1CN(c2cccc(-c3n[nH]c4ncccc34)n2)CC[C@H]1O` [Compound 144]: the Ki at PKC theta kinase was less than 50 nM; on PKC delta kinase, less than 2800 nM; at PKC alpha kinase, greater than 1250 nM.
As for `CC(C)C[C@H]1CN(c2cccc(-c3n[nH]c4ncccc34)n2)CC[C@@H]1O` [Compound 145], the Ki on PKC theta kinase is less than 500 nM; on PKC delta kinase, greater than 1250 nM; at PKC alpha kinase, greater than 1250 nM.
As for `CC(C)C[C@H]1CC(F)(c2cccc(-c3n[nH]c4ncccc34)n2)CCN1` (stereo partly drawn) [Compound 146], the figures for the Ki at PKC theta kinase, at PKC delta kinase and on PKC alpha kinase were less than 500 nM, less than 2800 nM and greater than 1250 nM, respectively.
With `CCOC[C@H]1CN(c2cccc(-c3n[nH]c4ncccc34)n2)CCN1` [Compound 147], the results for the Ki at PKC theta kinase, at PKC delta kinase and on PKC alpha kinase were less than 500 nM, greater than 1250 nM and greater than 1250 nM, respectively.
With `CC(C)(F)C1CN(c2cccc(-c3n[nH]c4ncccc34)n2)CCN1` (stereo not drawn) [Compound 148], the values for the Ki on PKC theta kinase, at PKC delta kinase and on PKC alpha kinase were less than 50 nM, less than 500 nM and greater than 1250 nM, respectively.
In the case of `CC(C)C[C@H]1CN(c2ccc(Cl)c(-c3n[nH]c4ncccc34)n2)CC[C@H]1N` [Compound 149], the Ki on PKC theta kinase was less than 50 nM; on PKC delta kinase, less than 500 nM; on PKC alpha kinase it was less than 500 nM.
Take `CC(C)C(F)(F)C1CN(c2ccc(C(F)(F)F)c(-c3n[nH]c4ncccc34)n2)CCN1` (stereo not drawn) [Compound 150]: the Ki at PKC theta kinase was less than 500 nM; on PKC delta kinase, greater than 1250 nM; on PKC alpha kinase it was greater than 1250 nM.
With `CC(C)(F)CC1CN(c2ccc(F)c(-c3n[nH]c4ncccc34)n2)CCN1` (stereo not drawn) [Compound 151], the Ki on PKC theta kinase is less than 50 nM; at PKC delta kinase it was less than 500 nM; at PKC alpha kinase it was greater than 1250 nM.
Consider `CC(C)C[C@H]1CN(c2ccc(F)c(-c3n[nH]c4ncccc34)n2)CC[C@H]1N` [Compound 152], for which the figures for the Ki at PKC theta kinase, on PKC delta kinase and at PKC alpha kinase were less than 50 nM, less than 500 nM and less than 500 nM, respectively.
Turning to `OCC1CN(c2cccc(-c3n[nH]c4ncccc34)n2)CCN1` (stereo not drawn) [Compound 153], the Ki on PKC theta kinase is less than 500 nM; on PKC delta kinase, less than 500 nM; at PKC alpha kinase, less than 2800 nM.
As for `CCC(O)(CC)C1CN(c2cccc(-c3n[nH]c4ncccc34)n2)CCN1` (stereo not drawn) [Compound 154], the values for the Ki at PKC theta kinase, at PKC delta kinase and at PKC alpha kinase were less than 50 nM, less than 500 nM and less than 2800 nM, respectively.
With `CC(F)(F)CC1CN(c2ccc(F)c(-c3n[nH]c4ncccc34)n2)CCN1` (stereo not drawn) [Compound 155], the Ki at PKC theta kinase was less than 50 nM; at PKC delta kinase it was less than 500 nM; at PKC alpha kinase it was greater than 1250 nM.
Take `OC1([C@@H]2CN(c3nc(-c4n[nH]c5ncccc45)c(F)cc3F)CCN2)CC1` [Compound 156]: the Ki at PKC theta kinase is less than 1 nM; at PKC delta kinase, less than 500 nM; on PKC alpha kinase, greater than 1250 nM.
For `C1=C(c2cccc(-c3n[nH]c4ncccc34)n2)CCNC1` [Compound 157], the Ki at PKC theta kinase is less than 500 nM; at PKC delta kinase, greater than 1250 nM; at PKC alpha kinase, greater than 1250 nM.
Consider `c1cc(-c2n[nH]c3ncccc23)nc(C2CCNCC2)c1` [Compound 159], for which the results for the Ki at PKC theta kinase, on PKC delta kinase and on PKC alpha kinase were less than 500 nM, less than 500 nM and less than 2800 nM, respectively.
As to `CCC(C)(O)C1CN(c2cccc(-c3n[nH]c4ncccc34)n2)CCN1` (stereo not drawn) [Compound 160], the figures for the Ki at PKC theta kinase, at PKC delta kinase and on PKC alpha kinase were less than 50 nM, less than 500 nM and less than 2800 nM, respectively.
In the same order, the values of `CCC(C)(O)C1CN(c2ccc(F)c(-c3n[nH]c4ncccc34)n2)CCN1` (stereo not drawn) [Compound 161] are less than 50 nM, less than 500 nM and greater than 1250 nM.
In the same order, the values of `c1cc(-c2n[nH]c3ncccc23)nc(N2CCN[C@@H](CC3CC3)C2)c1` [Compound 162] are less than 50 nM, less than 500 nM and less than 2800 nM.
`Fc1ccc(N2CCN[C@@H](CC3CC3)C2)nc1-c1n[nH]c2ncccc12` [Compound 163]: the values for the Ki on PKC theta kinase, on PKC delta kinase and at PKC alpha kinase were less than 50 nM, greater than 1250 nM and greater than 1250 nM, respectively.
`CC(O)C1CN(c2cccc(-c3n[nH]c4ncccc34)n2)CCN1` (stereo not drawn) [Compound 164]: the results for the Ki on PKC theta kinase, at PKC delta kinase and at PKC alpha kinase were less than 50 nM, less than 500 nM and greater than 1250 nM, respectively.
On the same counts, the results for `FC(F)(F)c1ccc(N2CCN[C@@H](CC3CC3)C2)nc1-c1n[nH]c2ncccc12` [Compound 165] are less than 500 nM, greater than 1250 nM and greater than 1250 nM.
On the same counts, the results for `O=C1CNCCN1c1cccc(-c2n[nH]c3ncccc23)n1` [Compound 166] are greater than 700 nM, greater than 1250 nM and greater than 1250 nM.
On the same counts, the results for `CC(C)C(F)(F)C1CN(c2ccc(F)c(-c3n[nH]c4ncccc34)n2)CCN1` (stereo not drawn) [Compound 167] are less than 500 nM, greater than 1250 nM and greater than 1250 nM.
As for `CC(C)C[C@@H]1CN(c2cccc(-c3n[nH]c4ncccc34)n2)CC[C@@H]1N` [Compound 169], the Ki was less than 50 nM on PKC theta kinase, less than 50 nM at PKC delta kinase and less than 500 nM on PKC alpha kinase.
`FC(F)(F)c1ccc(N2CCNC(c3cccc(Cl)c3)C2)nc1-c1n[nH]c2ncccc12` (stereo not drawn) [Compound 170]: the Ki at PKC theta kinase is less than 50 nM; at PKC delta kinase, less than 2800 nM; at PKC alpha kinase it was less than 500 nM.
In the same order, the values of `Fc1ccc(C2CN(c3ccc(C(F)(F)F)c(-c4n[nH]c5ncccc45)n3)CCN2)cc1` (stereo not drawn) [Compound 171] are less than 500 nM, greater than 1250 nM and greater than 1250 nM.
In the same order, the values of `FC(F)(F)c1ccc(N2CCNC(c3cccc(Br)c3)C2)nc1-c1n[nH]c2ncccc12` (stereo not drawn) [Compound 172] are less than 500 nM, greater than 1250 nM and less than 2800 nM.
On to `FC(F)(F)c1ccc(N2CCNC(c3ccc(Cl)cc3)C2)nc1-c1n[nH]c2ncccc12` (stereo not drawn) [Compound 173], for which the figures for the Ki at PKC theta kinase, on PKC delta kinase and on PKC alpha kinase were greater than 700 nM, greater than 1250 nM and greater than 1250 nM, respectively.
As for `CC(C)(O)[C@@H]1CN(c2cccc(-c3n[nH]c4ncccc34)n2)CCN1` [Compound 176], the Ki was less than 50 nM at PKC theta kinase, less than 50 nM at PKC delta kinase and greater than 1250 nM at PKC alpha kinase.
Consider `CC(C)C(C)(O)C1CN(c2cccc(-c3n[nH]c4ncccc34)n2)CCN1` (stereo not drawn) [Compound 177], for which the results for the Ki on PKC theta kinase, on PKC delta kinase and at PKC alpha kinase were less than 1 nM, less than 50 nM and less than 2800 nM, respectively.
On the same counts, the results for `COC(C)(C)C1CN(c2cccc(-c3n[nH]c4ncccc34)n2)CCN1` (stereo not drawn) [Compound 181] are less than 50 nM, less than 500 nM and greater than 1250 nM.
Turning to `CC(C)C[C@H]1CN(c2ccc(F)c(-c3n[nH]c4ncccc34)n2)C[C@H](C)N1` [Compound 182], the Ki at PKC theta kinase was greater than 700 nM; on PKC delta kinase, greater than 1250 nM; at PKC alpha kinase, greater than 1250 nM.

Source of the values: patent US9193722B2, “Tri-cyclic pyrazolopyridine kinase inhibitors” (Vertex Pharmaceuticals Incorporated, priority 2008, dated 2015).
